Measured values taken from ChEMBL document CHEMBL3785084, “Rational modification of the lead molecule: Enhancement in the anticancer and dihydrofolate reductase inhibitory activity” (Bioorg Med Chem Lett, 2016).

Tests used:
[1] = Cytotoxicity against human RPMI8226 cells assessed as cell growth at 10^-5 M after 48 hrs by sulforhodamine B assay; assay type: functional; conditions: RPMI-8226, 48 h, read-out: Activity
K562 = test: Cytotoxicity against human K562 cells assessed as cell growth at 10^-5 M after 48 hrs by sulforhodamine B assay; assay type: functional; conditions: K562, 48 h, read-out: Activity
[2] = Cytotoxicity against human SKOV3 cells assessed as cell growth at 10^-5 M after 48 hrs by sulforhodamine B assay; assay type: functional; conditions: SK-OV-3, 48 h, read-out: Activity
SK-MEL-28 = test: Cytotoxicity against human SK-MEL-28 cells assessed as cell growth at 10^-5 M after 48 hrs by sulforhodamine B assay; assay type: functional; conditions: SK-MEL-28, 48 h, read-out: Activity
786-0 = test: Cytotoxicity against human 786-0 cells assessed as cell growth at 10^-5 M after 48 hrs by sulforhodamine B assay; assay type: functional; conditions: 786-0, 48 h, read-out: Activity
SK-MEL-5 = test: Cytotoxicity against human SK-MEL-5 cells assessed as cell growth at 10^-5 M after 48 hrs by sulforhodamine B assay; assay type: functional; conditions: SK-MEL-5, 48 h, read-out: Activity
[3] = Cytotoxicity against human NCI-ADR-RES cells assessed as cell growth at 10^-5 M after 48 hrs by sulforhodamine B assay; assay type: functional; conditions: read-out: Activity
[4] = Cytotoxicity against human HOP92 cells assessed as cell growth at 10^-5 M after 48 hrs by sulforhodamine B assay; assay type: functional; conditions: HOP-92, 48 h, read-out: Activity
NCI-H460 = test: Cytotoxicity against human NCI-H460 cells assessed as cell growth at 10^-5 M after 48 hrs by sulforhodamine B assay; assay type: functional; conditions: NCI-H460, 48 h, read-out: Activity
NCI-H522 = test: Cytotoxicity against human NCI-H522 cells assessed as cell growth at 10^-5 M after 48 hrs by sulforhodamine B assay; assay type: functional; conditions: NCI-H522, 48 h, read-out: Activity
[5] = Cytotoxicity against human SNB75 cells assessed as cell growth at 10^-5 M after 48 hrs by sulforhodamine B assay; assay type: functional; conditions: SNB-75, 48 h, read-out: Activity
[6] = Cytotoxicity against human LOXIMVI cells assessed as cell growth at 10^-5 M after 48 hrs by sulforhodamine B assay; assay type: functional; conditions: LOX IMVI, read-out: Activity
[7] = Cytotoxicity against human MOLT4 cells assessed as cell growth at 10^-5 M after 48 hrs by sulforhodamine B assay; assay type: functional; conditions: MOLT-4, 48 h, read-out: Activity
SR = test: Cytotoxicity against human SR cells assessed as cell growth at 10^-5 M after 48 hrs by sulforhodamine B assay; assay type: functional; conditions: read-out: Activity
[8] = Cytotoxicity against human HCT15 cells assessed as cell growth at 10^-5 M after 48 hrs by sulforhodamine B assay; assay type: functional; conditions: HCT-15, 48 h, read-out: Activity
A549 = test: Cytotoxicity against human A549 cells assessed as cell growth at 10^-5 M after 48 hrs by sulforhodamine B assay; assay type: functional; conditions: A549, 48 h, read-out: Activity
SN12C = test: Cytotoxicity against human SN12C cells assessed as cell growth at 10^-5 M after 48 hrs by sulforhodamine B assay; assay type: functional; conditions: read-out: Activity
NCI-H23 = test: Cytotoxicity against human NCI-H23 cells assessed as cell growth at 10^-5 M after 48 hrs by sulforhodamine B assay; assay type: functional; conditions: NCI-H23, 48 h, read-out: Activity
MDA-MB-231 = test: Cytotoxicity against human MDA-MB-231 cells assessed as cell growth at 10^-5 M after 48 hrs by sulforhodamine B assay; assay type: functional; conditions: MDA-MB-231, 48 h, read-out: Activity
[9] = Cytotoxicity against human SF539 cells assessed as cell growth at 10^-5 M after 48 hrs by sulforhodamine B assay; assay type: functional; conditions: SF-539, 48 h, read-out: Activity
[10] = Cytotoxicity against human HL-60(TB) cells assessed as cell growth at 10^-5 M after 48 hrs by sulforhodamine B assay; assay type: functional; conditions: HL-60, 48 h, read-out: Activity
EKVX = test: Cytotoxicity against human EKVX cells assessed as cell growth at 10^-5 M after 48 hrs by sulforhodamine B assay; assay type: functional; conditions: read-out: Activity
Dihydrofolate reductase = molecular target: T1, Dihydrofolate reductase (Homo sapiens, UniProt P00374); test: Inhibition of human DHFR assessed as conversion of dihydrofolic acid to tetrahydrfolic acid by enzyme immunoassay in presence of NADPH
T1 sequence (P00374 whole entry): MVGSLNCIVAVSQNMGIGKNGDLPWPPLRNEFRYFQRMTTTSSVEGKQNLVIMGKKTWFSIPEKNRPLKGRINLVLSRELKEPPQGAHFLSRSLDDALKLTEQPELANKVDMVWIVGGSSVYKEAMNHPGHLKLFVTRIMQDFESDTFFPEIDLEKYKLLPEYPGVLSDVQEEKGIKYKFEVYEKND

[11] = Cytotoxicity against human UO31 cells assessed as cell growth at 10^-5 M after 48 hrs by sulforhodamine B assay; assay type: functional; conditions: UO-31, 48 h, read-out: Activity
CCRF-CEM = test: Cytotoxicity against human CCRF-CEM cells assessed as cell growth at 10^-5 M after 48 hrs by sulforhodamine B assay; assay type: functional; conditions: read-out: Activity
[12] = Cytotoxicity against human SW620 cells assessed as cell growth at 10^-5 M after 48 hrs by sulforhodamine B assay; assay type: functional; conditions: SW-620, 48 h, read-out: Activity
MDA-MB-435 = test: Cytotoxicity against human MDA-MB-435 cells assessed as cell growth at 10^-5 M after 48 hrs by sulforhodamine B assay; assay type: functional; conditions: MDA-MB-435, 48 h, read-out: Activity
ACHN = test: Cytotoxicity against human ACHN cells assessed as cell growth at 10^-5 M after 48 hrs by sulforhodamine B assay; assay type: functional; conditions: read-out: Activity
T47D = test: Cytotoxicity against human T47D cells assessed as cell growth at 10^-5 M after 48 hrs by sulforhodamine B assay; assay type: functional; conditions: read-out: Activity
[13] = Cytotoxicity against human HCC2998 cells assessed as cell growth at 10^-5 M after 48 hrs by sulforhodamine B assay; assay type: functional; conditions: HCC 2998, 48 h, read-out: Activity
[14] = Cytotoxicity against human Caki1 cells assessed as cell growth at 10^-5 M after 48 hrs by sulforhodamine B assay; assay type: functional; conditions: CAKI-1, 48 h, read-out: Activity
[15] = Cytotoxicity against human SF295 cells assessed as cell growth at 10^-5 M after 48 hrs by sulforhodamine B assay; assay type: functional; conditions: SF-295, 48 h, read-out: Activity
M14 = test: Cytotoxicity against human M14 cells assessed as cell growth at 10^-5 M after 48 hrs by sulforhodamine B assay; assay type: functional; conditions: M14, 48 h, read-out: Activity
[16] = Cytotoxicity against human OVCAR8 cells assessed as cell growth at 10^-5 M after 48 hrs by sulforhodamine B assay; assay type: functional; conditions: OVCAR-8, 48 h, read-out: Activity
[17] = Cytotoxicity against human RXF393 cells assessed as cell growth at 10^-5 M after 48 hrs by sulforhodamine B assay; assay type: functional; conditions: RXF 393, 48 h, read-out: Activity
NCI-H226 = test: Cytotoxicity against human NCI-H226 cells assessed as cell growth at 10^-5 M after 48 hrs by sulforhodamine B assay; assay type: functional; conditions: NCI-H226, 48 h, read-out: Activity

Structure (SMILES)	growth at 10 µM [1] [%]	growth at 10 µM (K562) [%]	growth at 10 µM [2] [%]	growth at 10 µM (SK-MEL-28) [%]	growth at 10 µM (786-0) [%]	growth at 10 µM (SK-MEL-5) [%]	growth at 10 µM [3] [%]	growth at 10 µM [4] [%]	growth at 10 µM (NCI-H460) [%]	growth at 10 µM (NCI-H522) [%]	growth at 10 µM [5] [%]	growth at 10 µM [6] [%]	growth at 10 µM [7] [%]	growth at 10 µM (SR) [%]	growth at 10 µM [8] [%]	growth at 10 µM (A549) [%]	growth at 10 µM (SN12C) [%]	growth at 10 µM (NCI-H23) [%]	growth at 10 µM (MDA-MB-231) [%]	growth at 10 µM [9] [%]	further results
O=C1Nc2ccccc2/C1=C/c1cn(CC(O)Cn2cc(/C=C3\C(=O)Nc4ccccc43)c3ccccc32)c2ccccc12 (stereo not drawn)	-41.7	-16.7	-38.2	-85	-70.8	-80.2	31.8	-73.9	-65.1	-17.4	-95.9	-84.5	-29.4	-2.94	-69.8	-11.6	-53.6	-67.3	-80	-77.7	growth at 10 µM [10]: -10.2%; growth at 10 µM (EKVX): -62.3%; IC50 (Dihydrofolate reductase): 0.03 µM; Ki (Dihydrofolate reductase): 0.00583 µM; growth at 10 µM [11]: -9.18%; growth at 10 µM (CCRF-CEM): -30.6%; growth at 10 µM [12]: -60.4%; growth at 10 µM (MDA-MB-435): -87.6%; growth at 10 µM (ACHN): -68.4%; growth at 10 µM (T47D): -46.1%; growth at 10 µM [13]: -16.9%; growth at 10 µM [14]: 9.83%; growth at 10 µM [15]: -84.7%; growth at 10 µM (M14): -81.4%; growth at 10 µM [16]: 1.35%; growth at 10 µM [17]: -90.8%; growth at 10 µM (NCI-H226): -74.8%
CN1C(=O)C(=Cc2cn(CC(O)Cn3cc(C=C4C(=O)N(C)C(=O)N(C)C4=O)c4ccccc43)c3ccccc23)C(=O)N(C)C1=O	86.2	97.3	85.2	109	100	97	105	80.4	33.1	108	72.3	97	106	94.3	105	96.8	99.1	87.9	78.3	103	growth at 10 µM [10]: 107%; growth at 10 µM (EKVX): 91.7%; IC50 (Dihydrofolate reductase): 20 µM; growth at 10 µM [11]: 63.8%; growth at 10 µM (CCRF-CEM): 98.3%; growth at 10 µM [12]: 102%; growth at 10 µM (MDA-MB-435): 107%; growth at 10 µM (ACHN): 93.7%; growth at 10 µM (T47D): 91.8%; growth at 10 µM [13]: 104%; growth at 10 µM [14]: 90.8%; growth at 10 µM [15]: 107%; growth at 10 µM (M14): 89.7%; growth at 10 µM [16]: 114%; growth at 10 µM [17]: 104%; growth at 10 µM (NCI-H226): 86%
